The text below walks through data of patent US8173592B1, “Method for a programmed controlled ovarian stimulation protocol” (Zentaris IVF GmbH, priority 1999, dated 2012).

Molecules are shown by their SMILES. Non-standard residues stand in square brackets, D forms with d. Residues, ends and D or L forms follow the SMILES beside them. dPhe(4-Cl) = N[C@H](Cc1ccc(Cl)cc1)C(=O)O; d2Nal = N[C@H](Cc1ccc2ccccc2c1)C(=O)O; dCit = NC(=O)NCCC[C@@H](N)C(=O)O; d3Pal = N[C@H](Cc1cccnc1)C(=O)O

In data set [1] the test system is women undergoing controlled ovarian stimulation. The experiment in a line: Controlled ovarian stimulation (COS) cycles programmed by oral contraceptives, with Gonal-F stimulation and Cetrotide 0.25 mg daily, in patients. Format: in vivo. The procedure: A total of 30 patients, 15 from each German study center was enrolled for one treatment cycle. In the pre-treatment cycle, each patient received monophasic oral contraceptive(OC) pills containing 30 μg Estradiol in combination with levonogastrel. […] Cetrotide® 0.25 mg was given daily from the evening of stimulation day (s-day) 5/morning of s-day 6 until the day before hCG administration. On the basis of the ultrasound scans performed on s-day 9/10(s-day 9/10), and a calculation of follicular growth of 2 mm per day, hCG was administered to trigger ovulation (when >2 follicle's≧18 mm) were visualized.
Safety end-points were indicated and severity of adverse events.

Data set [2] deals with luteal regression / start of menses. The settings on record: 1 mg given in the luteal phase; previous use; cited from earlier work.
Setting [3] is: last day of Cetrotide administration, 17 patients.

`CC(=O)N[C@H](Cc1ccc2ccccc2c1)C(=O)N[C@H](Cc1ccc(Cl)cc1)C(=O)N[C@H](Cc1cccnc1)C(=O)N[C@@H](CO)C(=O)N[C@@H](Cc1ccc(O)cc1)C(=O)N[C@H](CCCNC(N)=O)C(=O)N[C@@H](CC(C)C)C(=O)N[C@@H](CCCNC(=N)N)C(=O)N1CCC[C@H]1C(=O)N[C@H](C)C(N)=O` [Cetrotide, cetrorelix] (Ac-[d2Nal][dPhe(4-Cl)][d3Pal]SY[dCit]LRP[dA]-NH2): in data set [1] (17 patients), the adverse events entry is “no cases of OHSS nor adverse events”; the “cases of OHSS” value is given as “no cases”; the “difference between predicted and actual day of OPU, average” value was 2 days; the “mean number of embryos transferred” value worked out at 2. For the same compound, in data set [1] (17 patients), the “mean number of oocytes retrieved” value was found to be 8.8; the “patients receiving hCG who had ovum pick up and embryo transfer” value was “All 17 women who received hCG had ovum pick up and embryo transfer”; the “pregnancy rate per attempt/cycle” value is listed as 41%. For the same compound, in data set [1] (conclusion), the “efficacy in OC programmed cycles” value is recorded as “appears to be effective” and the “tolerability in OC programmed cycles” value is listed as “well tolerated”. In data set [1] (setting [3]), the “mean number of follicles with diameter 15-17 mm” value came out at 4.9, the “mean number of follicles with diameter ≦14 mm” value is on record as 2.7 and the “mean number of follicles with diameter ≧18 mm” value was 2.7. Moreover, the “mean number of follicles ≧18 mm on s-day 9/10” value in data set [1] (preliminary results from 17 patients, stimulation day 9/10, Cetrotide 0.25 mg daily) came out at 2.2. The “start of menses after administration (luteal regression obtained)” value in data set [2] is on record as 2 to 4 days.
